Measurements taken from patent publication US20210220482A1, “MITOCHONDRIAL COPPER DEPLETION REPROGRAMS THE METABOLISM OF TRIPLE NEGATIVE BREAST CANCER” (The Board of Trustees of the Leland Stanford Junior …, priority 2019, published 2021).
Where two headings read alike, the source gives them in different places.

Columns and labels:
[1] = test system: MDA-MB-231 and MDA-MB-468 cells; experiment: Western blot of cleaved caspase 3 (apoptosis); assay type: cell-based, human; settings: 24 h incubation; CDM 1 μM, ATN224 5 μM, inhibitors 1 μM
Description: Then cells were trypsinized, and cell lysates were prepared with RIPA buffer (Thermo, cat. no. 89900). The protein concentrations were quantified by Pierce BCA assay (Thermo Scientific, 23250). Cleaved caspase 3 antibody was purchased from Cell Signaling Technologies (Asp175, no. 9661). SOD1 antibody was from Santa Cruz Biotechnologies (sc-101523).

[2] = test system: MDA-MB-231 orthotopic tumors; experiment: Long-term survival study; assay type: in vivo, nude mice; settings: i.v. weekly, seven doses, chelator 1.35 mg kg^−1; ATN224 oral gavage 0.7 mg kg^−1 d^−1
Description: The SPN group received an i.v. injection of the same amount of SPN as in the CDN group weekly for seven doses in total. […] The treatment plan was initiated when the average tumor size reached 50 mm^3 and the endpoint of the survival study was primary tumor volume over 500 mm^3 and/or other signs identified by the veterinarian. The tumor volumes were continuously monitored over the treatment plan.

[3] = test system: MDA-MB-231 and MDA-MB-468 cells; experiment: OCR and ECAR measurement (Seahorse); assay type: cell-based, human; settings: after 1 h of incubation, both cell lines, vs nontreated control
Description: OCR and ECAR measurement. OCR and ECAR were measured by a Seahorse Bioscience instrument (XF96, Agilent). Briefly, on the day following MDA-MB-231 or MDA-MB-468 cell seeding, cells were incubated with CDN or control agents for 24 h (chelator concentration, 1 μM). On the day of measurement, cells were washed three times with D-PBS, changed into fresh medium without phenol red and bicarbonate (Seahorse base medium, cat. no. 103336-100) and equilibrated for 30 min in a 37° C. incubator lacking CO2. Oxygen concentration and extracellular acidification in media were measured at basal conditions and after sequential addition of oligomycin (1 μM, introduced after 28 min), FCCP (1 μM, introduced after 54 min) and rotenone/antimycin A (0.5 μM, introduced after 80 min) (n=8 per condition for OCR and ECAR for each cell line). […] Cells were then changed into Seahorse base medium and equilibrated for 30 min in a 37° C. incubator lacking CO2. Oxygen concentration and extracellular acidification in media were measured at basal conditions and after sequential addition of oligomycin (1 μM, introduced after 28 min), FCCP (1 μM, introduced after 54 min) and rotenone/antimycin A (0.5 μM, introduced after 80 min) (n=6 per condition for OCR and ECAR for each cell line).

MDA-MB-231luc cells = experiment: In vitro copper depletion (CCL-1 luminescence, CDM fluorescence); assay type: cell-based, human; settings: CDN (CDM 1 μM) with excess EDTA, 24 h
Description: In vitro copper depletion: The copper level after CDN or control agent treatment was measured by CCL-1 luminescence imaging or ratiometric fluorescence microscopic imaging of fCDN. […] SPN, 50 μg ml-1) was added and incubation was continued for 24 h. […] Cells were immediately imaged by IVIS Spectrum (PerkinElmer) for 45 min. The integration images of luminescent radiance were presented. […] Images were processed as green/red ratios profiled by ImageJ and presented in pseudo-colors.

[4] = test system: MDA-MB-231 and MDA-MB-468 cells; experiment: Cell viability with ROS scavenger MitoTEMPO; assay type: cell-based, human; settings: MitoTEMPO up to 5 μM
Description: Cytotoxicity: For the MTS assay, TNBC and normal cells were seeded into 96-well plates 24 h before the test and cultured in a humidified atmosphere of 5% CO2 and 95% air at 37° C. Cells were then incubated with CDN or control agents with the concentrations indicated in FIG. 2 in complete medium or base medium without FBS supplement. At 24 h after incubation, cells were washed with PBS three times and changed to fresh medium. The viability of the cells after treatment was measured using the MTS assay (CellTiter 96, Promega, cat. no. G3580). The viability was presented as the percentage of control (n=3 per condition for viability). For the trypan blue exclusion test, TNBC cells were seeded into six-well plates 24 h before the test and cultured in a humidified atmosphere of 5% CO2 and 95% air at 37° C. Cells were then incubated with CDN or control agents in complete medium. […] The viability of the cells was measured with Countess II (Life Technology). […]
Cellular ATP measurement: ATP levels after CDN or control agent treatment were determined by Adenosine 5-triphosphate Bioluminescent Somatic Cell Assay Kit (Sigma-Aldrich, FLASC). […] The luminescence signals were measured by a Turner Biosystems 20/20n luminometer. The ATP concentration of each group was determined based on the ATP standard assay (n=3 per condition ATP production measurement for each cell line).

MDA-MB-468 cells = experiment: Cytotoxicity MTS assay, MDA-MB-468; assay type: cell-based, human; settings: MDA-MB-468, 24 h, in the presence of serum
Description: (§1) Cytotoxicity: For the MTS assay, TNBC and normal cells were seeded into 96-well plates 24 h before the test and cultured in a humidified atmosphere of 5% CO2 and 95% air at 37° C. Cells were then incubated with CDN or control agents with the concentrations indicated in FIG. 2 in complete medium or base medium without FBS supplement. At 24 h after incubation, cells were washed with PBS three times and changed to fresh medium. The viability of the cells after treatment was measured using the MTS assay (CellTiter 96, Promega, cat. no. G3580). The viability was presented as the percentage of control (n=3 per condition for viability). For the trypan blue exclusion test, TNBC cells were seeded into six-well plates 24 h before the test and cultured in a humidified atmosphere of 5% CO2 and 95% air at 37° C. Cells were then incubated with CDN or control agents in complete medium. At 24 h after incubation, cells were washed with PBS three times and collected with a scraper. The cell suspension was then mixed with 0.4% trypan blue dye (1:1; Thermo Fisher Scientific, cat. no. 15250061) and incubated for less than 3 min at room temperature. The viability of the cells was measured with Countess II (Life Technology). The viability was presented as the percentage of control (n=3 per condition for viability).

MDA-MB-231 cells = experiment: Cytotoxicity MTS assay, MDA-MB-231; assay type: cell-based, human; settings: MDA-MB-231, 24 h, in the presence of serum, read-out: half-maximum inhibitory concentration (IC50)
Description: as §1

[5] = test system: MDA-MB-231luc orthotopic breast cancer; experiment: Copper level in tumor after treatment (CCL-1/d-luciferin imaging); assay type: in vivo, mice; settings: i.v. 1.35 mg kg^−1 every 3 d, day 25, compared with the control group
Description: For the treatment group, mice were intravenously injected with CDN or control agents every 3 d, with five doses in total. Tumor volume was continuously monitored over the treatment plan. At day 25 after initial treatment, mice were subjected to d-luciferin bioluminescence imaging (150 mg kg^−1) and CCL-1 luminescence imaging (6 mg kg^−1).

SMILES: C[N+](C)(C)CCO.C[N+](C)(C)CCO.[SH-].[SH-].[S]=[Mo]=[S] [ATN224]
- apoptosis (cleaved caspase 3) [1]: but not with ATN224 treatment
- median survival [2]: 32 days

SMILES: Cc1cc(-c2nc(-c3ccc(OC(F)(F)F)cc3)no2)nn1Cc1ccnc(N2CCN(C3CC3)CC2)c1 [BAY 87-2243]
- apoptosis (cleaved caspase 3) [1]: barely induced apoptosis
- oxygen consumption (OCR) [3]: almost completely inhibited the oxygen consumption

SMILES: O=C(O)CN(CCN(CC(=O)O)CC(=O)O)CC(=O)O [EDTA, ethylenediaminetetraacetic acid]
- CCL-1 luminescence (labile copper) (MDA-MB-231luc cells): 78.6±11.7 % of the CDN group
- CDM fluorescence (MDA-MB-231luc cells): 123.7±4.1 % of the CDN group

SMILES: Cc1nc(-c2nc(-c3ccc(OC(F)(F)F)cc3)no2)nn1Cc1cccc(N2CCC(S(C)(=O)=O)CC2)c1 [IACS-010759]
- apoptosis (cleaved caspase 3) [1]: barely induced apoptosis
- oxygen consumption (OCR) [3]: almost completely inhibited the oxygen consumption

SMILES: CC1(C)CC(NC(=O)C[P+](c2ccccc2)(c2ccccc2)c2ccccc2)CC(C)(C)N1[O] [MitoTEMPO]
- rescue of cells from the CDN treatment effect ([4]; CDM 1 μM, 24 h): did not rescue the cells
- effect on cell viability ([4]; medium with or without FBS): will not affect the cell viability

SMILES: [SH-].[SH-].[S]=[Mo]=[S] [TM, tetrathiomolybdate]
- IC50 (MDA-MB-468 cells): ~46.3 µM
- IC50 (MDA-MB-231 cells): > 100 µM

SMILES: c1ccc(CN(Cc2ccccn2)Cc2ccccn2)nc1 [TPA, tris[(2-pyridyl)-methyl]amine]
- median survival [2]: 35 days
- IC50 (MDA-MB-468 cells; Homo sapiens): 5.34 ± 1.12 µM
- copper in the tumor region (CCL-1 to d-luciferin total flux ratio) [5]: successfully depleted the copper in the tumor region
- IC50 (MDA-MB-231 cells; Homo sapiens): 9.25 ± 2.19 µM
